We go through 3 compounds from paper PMC8791557 (Environment international, 2021).

The Tmax is the time at which the peak concentration occurs. Usually half-life stands for how long it takes for the measured level to halve. A higher half-life goes with slow decline.

The format of series [1] is in vivo, human. The note with it: for k1e / k12 / k21 / ka / α / β: two-compartmental model; for Tmax of metabolite: median.
The conditions of series [2]: human, in vivo; cited from earlier work.
Where [3] appears, read: 50 ng [14C]-BaP oral, mean ± SD.
Setting [4] is: 100 ng [14C]-BaP oral, mean ± SD.
The mark [5] stands for this setting: 250 ng [14C]-BaP oral, mean ± SD.
Where [6] appears, read: metabolite in plasma after 25 ng [14C]-BaP oral.
[7] abbreviates: metabolite in plasma after 50 ng [14C]-BaP oral.
The mark [8] stands for this setting: metabolite in plasma after 100 ng [14C]-BaP oral.
Where [9] appears, read: metabolite in plasma after 250 ng [14C]-BaP oral.

Where two headings read alike, the source gives them in different places.

Consider `c1ccc2c(c1)cc1ccc3cccc4ccc2c1c34` [[^14C]-BaP, Benzo[a]pyrene], for which the k1e in series [1] (25 ng [14C]-BaP oral, n = 1) was 0.0068 NA 1/h; in series [1] (setting [3]), 0.694 ± 0.412 n = 5 1/h; in series [1] (setting [4]), 0.558 ± 0.897 n = 6 1/h; in series [1] (setting [5]) it was 1.25 ± 1.71 n = 7 1/h. Further, the k12 in series [1] (25 ng [14C]-BaP oral, n = 1) turned out to be 0.331 NA 1/h; in series [1] (setting [3]) it was 0.83 ± 1.11 n = 5 1/h; in series [1] (setting [4]), 2.60 ± 3.45 n = 6 1/h; in series [1] (setting [5]), 4.27 ± 6.92 n = 7 1/h. Further, the k21 in series [1] (25 ng [14C]-BaP oral, n = 1) was 0.028 NA 1/h; in series [1] (setting [3]) it was 0.270 ± 0.253 n = 5 1/h; in series [1] (setting [4]), 0.190 ± 0.180 n = 6 1/h; in series [1] (setting [5]), 0.290 ± 0.564 n = 7 1/h. Besides, the ka is on record as 592 NA 1/h in series [1] (25 ng [14C]-BaP oral, n = 1); 1.30 × 10^7 ± 2.90 × 10^7 n = 5 1/h in series [1] (setting [3]); 3.52 ± 4.75 n = 6 1/h in series [1] (setting [4]); 43.2 ± 111 n = 7 1/h in series [1] (setting [5]). Further, the α in series [1] (25 ng [14C]-BaP oral, n = 1) is given as 0.366 NA 1/h; in series [1] (setting [3]) it was 1.69 ± 0.89 n = 5 1/h; in series [1] (setting [4]) it was 3.33 ± 4.28 n = 6 1/h; in series [1] (setting [5]), 5.80 ± 6.64 n = 7 1/h. Besides, the β in series [1] (25 ng [14C]-BaP oral, n = 1) is 5.03 × 10^−4 NA 1/h; in series [1] (setting [3]), 0.105 ± 0.164 n = 5 1/h; in series [1] (setting [4]), 0.020 ± 0.021 n = 6 1/h; in series [1] (setting [5]) it was 0.014 ± 0.019 n = 7 1/h. The “increase of compartmental model apparent volume of distribution” value in series [1] (both, human, in vivo) came to 4.6 ×. Further, the “increase of mean non-compartmental apparent volume of distribution” value in series [1] (both, human, in vivo) is 15 ×. The Tmax was 30 to 60 min in series [1] (both, human, in vivo, Tmax); 30 min in series [1] (both, human, in vivo, median Tmax); 30 min in series [1] (both, human, in vivo, po, Tmax (Median)); 30 to 240 min in series [1] (both, human, in vivo, po, Tmax (Range)); 30 min in series [1] (both, human, in vivo, po, median Tmax); 45 to 60 min in series [2]. In addition, the half-life in series [1] (both, human, in vivo, average half-life across doses) is 2790 ± 3490 min; in series [1] (both, human, in vivo, po, α half-life), 29 ± 11.2 min; in series [1] (human, in vivo, po, Half-life), 259 min; in series [1] (human, in vivo, po, α half-life), 114 min; in series [1] (human, in vivo, po, β half-life), 78400 min. Besides, the “AUC0–48h, range of dose-group means” value in series [1] (human, in vivo) is 12.2 ± 14.5 to 88.5 ± 14.1. The “Cmax, range of dose-group means” value in series [1] (human, in vivo) is 2.51 ± 2.53 to 13.8 ± 9.52. The compound further returned a Clearance in series [1] (human, in vivo, po) of 811 n = 1 L/h.

As for `Oc1ccc2cc3ccc4cccc5ccc(c2c1)c3c45` [9-OH, 9 - OH BaP], the Tmax of metabolite in series [1] (setting [6]) worked out at 0.5 h; in series [1] (setting [7]), 1.0 h; in series [1] (setting [8]), 1.0 h; in series [1] (setting [9]), 0.75 h.

For the compound `Oc1ccc2ccc3c4ccccc4cc4ccc1c2c43` [3-OH, 3 - OH BaP], the Tmax of metabolite stood at 1.0 h in series [1] (setting [6]), 1.25 h in series [1] (setting [7]), 1.0 h in series [1] (setting [8]) and 1.5 h in series [1] (setting [9]).
